Data set [1] has as its target T1, HEX-3 (Caenorhabditis elegans, UniProt A7DY67).
T1 sequence (A7DY67 31-591 limits assumed): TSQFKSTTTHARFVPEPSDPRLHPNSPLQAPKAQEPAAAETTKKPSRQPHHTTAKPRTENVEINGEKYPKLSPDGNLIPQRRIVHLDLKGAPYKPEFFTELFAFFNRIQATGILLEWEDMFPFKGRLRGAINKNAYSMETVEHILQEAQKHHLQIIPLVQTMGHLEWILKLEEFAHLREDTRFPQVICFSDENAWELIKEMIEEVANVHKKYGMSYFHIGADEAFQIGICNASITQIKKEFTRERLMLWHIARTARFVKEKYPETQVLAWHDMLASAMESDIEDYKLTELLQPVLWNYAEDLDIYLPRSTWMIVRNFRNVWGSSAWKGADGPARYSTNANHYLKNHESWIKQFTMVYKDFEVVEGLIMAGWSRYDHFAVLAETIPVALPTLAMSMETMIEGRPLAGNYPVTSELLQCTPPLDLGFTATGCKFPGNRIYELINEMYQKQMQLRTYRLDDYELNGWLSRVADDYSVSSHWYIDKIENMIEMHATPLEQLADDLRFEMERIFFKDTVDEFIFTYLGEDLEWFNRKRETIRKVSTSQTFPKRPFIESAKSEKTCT
The data set is described as follows: GnGn-PA digestion, RP-HPLC. Format: biochemical. To be noted: read-out: % inhibition at 200 μM.

For data set [2], the target named is T2, HEX-2 (Caenorhabditis elegans, UniProt G5EFL1).
T2 sequence (G5EFL1 36-596 limits assumed): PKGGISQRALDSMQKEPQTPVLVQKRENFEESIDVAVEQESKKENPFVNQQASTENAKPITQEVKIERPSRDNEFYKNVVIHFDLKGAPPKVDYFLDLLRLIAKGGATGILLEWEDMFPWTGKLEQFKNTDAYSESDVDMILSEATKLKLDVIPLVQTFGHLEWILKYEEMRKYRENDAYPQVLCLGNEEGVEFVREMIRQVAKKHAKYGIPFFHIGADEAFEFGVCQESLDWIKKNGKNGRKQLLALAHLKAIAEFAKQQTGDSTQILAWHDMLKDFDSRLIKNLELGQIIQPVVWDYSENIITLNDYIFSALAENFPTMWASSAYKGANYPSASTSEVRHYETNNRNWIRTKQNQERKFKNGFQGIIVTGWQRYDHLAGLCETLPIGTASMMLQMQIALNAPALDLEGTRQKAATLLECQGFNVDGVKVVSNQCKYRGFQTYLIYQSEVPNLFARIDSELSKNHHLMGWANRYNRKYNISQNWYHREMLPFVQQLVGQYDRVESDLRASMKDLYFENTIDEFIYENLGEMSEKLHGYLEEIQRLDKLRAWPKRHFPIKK
In words: GnGn-PA digestion, RP-HPLC. The data set is classed as biochemical. The following applies: read-out: % inhibition at 200 μM.

In data set [3] the target is T3, HEX-1 (Caenorhabditis elegans, UniProt Q22492).
T3 sequence (Q22492 19-555 limits assumed): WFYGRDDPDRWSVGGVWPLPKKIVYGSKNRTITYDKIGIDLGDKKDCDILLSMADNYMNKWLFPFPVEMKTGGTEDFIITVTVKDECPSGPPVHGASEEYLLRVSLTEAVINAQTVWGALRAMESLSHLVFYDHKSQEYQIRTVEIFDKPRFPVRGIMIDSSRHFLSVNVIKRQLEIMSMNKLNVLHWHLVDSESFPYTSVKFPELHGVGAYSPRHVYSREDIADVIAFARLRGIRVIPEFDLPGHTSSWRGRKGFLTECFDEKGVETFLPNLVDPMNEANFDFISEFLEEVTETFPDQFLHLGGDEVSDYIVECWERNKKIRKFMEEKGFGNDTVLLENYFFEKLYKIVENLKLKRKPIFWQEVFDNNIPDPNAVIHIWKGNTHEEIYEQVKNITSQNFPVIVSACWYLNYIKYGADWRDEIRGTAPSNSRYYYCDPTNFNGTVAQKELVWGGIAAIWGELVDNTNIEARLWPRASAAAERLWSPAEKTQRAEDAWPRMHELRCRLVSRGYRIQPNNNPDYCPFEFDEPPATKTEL
In words: p-nitrophenylglycoside hydrolysis assay, Dixon plot. The data set is classed as biochemical.

For data set [4], the target named is T4, AtHEX1 (Arabidopsis thaliana, UniProt Q8L7S6).
T4 sequence (Q8L7S6 25-535 limits assumed): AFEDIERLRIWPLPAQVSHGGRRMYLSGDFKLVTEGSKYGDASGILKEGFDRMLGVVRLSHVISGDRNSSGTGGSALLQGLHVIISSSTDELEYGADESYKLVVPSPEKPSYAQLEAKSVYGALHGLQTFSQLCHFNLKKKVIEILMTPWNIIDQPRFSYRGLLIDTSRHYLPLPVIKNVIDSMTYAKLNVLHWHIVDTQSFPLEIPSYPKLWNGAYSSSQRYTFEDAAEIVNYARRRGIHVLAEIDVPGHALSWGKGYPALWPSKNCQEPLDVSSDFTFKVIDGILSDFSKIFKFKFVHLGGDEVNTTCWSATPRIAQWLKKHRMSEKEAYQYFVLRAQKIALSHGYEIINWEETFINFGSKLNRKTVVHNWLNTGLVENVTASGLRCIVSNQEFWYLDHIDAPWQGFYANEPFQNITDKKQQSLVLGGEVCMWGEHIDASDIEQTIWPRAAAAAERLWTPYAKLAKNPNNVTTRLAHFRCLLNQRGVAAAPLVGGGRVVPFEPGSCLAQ
The data set is described as follows: p-nitrophenylglycoside hydrolysis assay. The data set is classed as biochemical.

The target of data set [5] is T4, AtHEX1. In words: p-nitrophenylglycoside hydrolysis assay, single concentration. Format: biochemical. The following applies: read-out: % inhibition at 0.1 mM.
Substrate in data set [6]: CC(=O)N[C@H]1[C@H](Oc2ccc([N+](=O)[O-])cc2)O[C@H](CO)[C@@H](O)[C@@H]1O
The data set is described as follows: purified protein.

As a reminder, the inhibition is how much of the control response was suppressed. One may read the Ki as the dissociation constant of the complex between target and ligand, obtained from inhibition or displacement. Higher therefore signals weaker binding. In general, Km refers to the substrate concentration at which the rate is half of its maximum.

As for `CC(=O)N[C@H]1CN2CC[C@H](O)[C@@H]2[C@@H](O)[C@@H]1O`, the inhibition at 200 µM in data set [1] and in data set [2] was roughly 80% throughout. `CC(=O)N[C@H]1CN[C@H](CO)[C@@H](O)[C@@H]1O` [2-acetamido-1,2-dideoxynojirimycin, 2-acetamido-1,2,5-trideoxy-1,5-imino-D-glucitol] had a Ki in data set [3] of roughly 1000 µM. In data set [4], the “p-nitrophenylglycoside hydrolysis assay (about 50% inhibition at 0.2 mM)” value was “about 50% inhibition at 0.2”.

`CC(=O)N[C@H]1/C(=N/OC(=O)Nc2ccccc2)O[C@H](CO)[C@@H](O)[C@@H]1O` [PUGNAc, O-(2-acetamido-2-deoxy-D-glucopyranosylidene)amino N-phenylcarbamate]: the Ki in data set [3] is roughly 2 µM. Besides, the inhibition at 100 µM in data set [5] is roughly 90%.

B1: HEX-1 (Caenorhabditis elegans) (protein)
chain: T3 sequence (Q22492 19-555 limits assumed)
As for B1, the Km in data set [6] amounted to 1100 µM.
